Assay results taken from US12441704B2, “Compounds active towards nuclear receptors” (NUEVOLUTION A/S, priority 2019, dated 2025).

What follows are compounds tested against T1, RORγ ligand-binding domain fused to Gal4 (Homo sapiens, UniProt P51449) (assay: RORγ Reporter Assay (Gal4)). Details: HEK293 cells co-transfected with RORγ LBD-Gal4 and luciferase reporter; 24 h incubation; absolute EC50; read-out: EC50.
T1 construct: Gal4 (galactose-responsive transcription factor); expressed in transfected cells; host or cells: HEK293
T1 sequence (P51449 269-508 limits assumed): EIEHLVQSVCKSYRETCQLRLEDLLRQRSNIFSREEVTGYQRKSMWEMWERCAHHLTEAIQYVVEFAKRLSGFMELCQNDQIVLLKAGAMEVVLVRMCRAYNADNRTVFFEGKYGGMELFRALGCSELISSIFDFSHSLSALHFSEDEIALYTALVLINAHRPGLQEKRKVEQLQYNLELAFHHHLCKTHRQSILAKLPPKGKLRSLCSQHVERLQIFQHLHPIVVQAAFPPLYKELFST
Assay type: cell-based
Protocol: The HEK293 cell line is co-transfected transiently with two plasmids, one with the RORγ ligand-binding domain fused to galactose-responsive transcription factor (Gal4), and the other with the luciferase reporter gene and Gal binding sites (UAS). This construction allows to determine the RORγ activity in a cellular system through the measurement of luminescence.
A suspension of RORγ reporter cells was dispensed into plates and cultured 2 h at 37° C. and 5% CO2. Media formulation consisted in DMEM/F-12 medium (Gibco) supplemented with 10% heat inactivated FBS (Sigma-Aldrich), non-essential aminoacids (Sigma-Aldrich), 2 mM Glutamax (Gibco) and 100 U/mL penicillin (Sigma-Aldrich). Dose-response curves with compounds were prepared in 100% DMSO and further diluted 100-fold in culture medium. Compound solutions were added to the plate containing cells (final DMSO concentration of 0.1%) and incubated for 24 h at 37° C. and 5% CO2. Luciferase detection reagent was added to each well, and relative light units (RLUs) were quantified from each assay well using a plate reading luminometer.
Values of average RLU±S.D. were computed for all treatment sets, followed by the calculations of percent-reduction of RORγ activity in response to respective test compound. The following formula was used: activity=100*[1−[x test compound/average vehicle] where the theoretical minimum reduction (0% reduction).

SMILES	EC50 [nM]
NC(=O)CN1CC[C@@H](CNc2ncnc(N(Cc3ccc(C(F)(F)F)cn3)C3CC3)c2F)[C@H](O)C1 (racemic) [Example A7-14, rac-2-((3R,4R)-4-(((6-(cyclopropyl((5-(trifluoromethyl)pyridin-2-yl)methyl)amino)-5-fluoropyrimidin-4-yl)amino)methyl)-3-hydroxypiperidin-1-yl)acetamide]	15
CCN(Cc1ccc(C(F)(F)F)cc1)c1ncnc(NC[C@H]2CCN(CC(N)=O)C[C@@H]2O)c1F (racemic) [Example A7-21, rac-2-((3R,4R)-4-(((6-(ethyl(4-(trifluoromethyl)benzyl)amino)-5-fluoropyrimidin-4-yl)amino)methyl)-3-hydroxypiperidin-1-yl)acetamide]	12
NC(=O)CN1CC[C@@H](CNc2ncnc(N(Cc3ccc(C(F)(F)F)nc3)C3CC3)c2F)[C@H](O)C1 (racemic) [Example A7-28, rac-2-((3R,4R)-4-(((6-(cyclopropyl((6-(trifluoromethyl)pyridin-3-yl)methyl)amino)-5-fluoropyrimidin-4-yl)amino)methyl)-3-hydroxypiperidin-1-yl)acetamide]	20.5
NC(=O)CN1CCC(CNc2ncnc(N(Cc3ccc(C(F)(F)F)cn3)C3CC3)c2F)CC1 [Example A7-35, 2-(4-(((6-(cyclopropyl((5-(trifluoromethyl)pyridin-2-yl)methyl)amino)-5-fluoropyrimidin-4-yl)amino)methyl)piperidin-1-yl)acetamide]	310
N#Cc1cccc(CN(c2ncnc(NCC3CCN(CC(N)=O)CC3)c2F)C2CC2)c1 [Example A7-36, 2-(4-(((6-((3-cyanobenzyl)(cyclopropyl)amino)-5-fluoropyrimidin-4-yl)amino)methyl)piperidin-1-yl)acetamide]	860
NC(=O)CN1CCC(CNc2ncnc(N(Cc3ccc4c(c3)OCC(=O)N4)C3CC3)c2F)CC1 [Example A7-37]	670
NC(=O)CN1CCC(CNc2ncnc(N(Cc3cccc(-n4cncn4)c3)C3CC3)c2F)CC1 [Example A7-38, 2-(4-(((6-((3-(1H-1,2,4-triazol-1-yl)benzyl)(cyclopropyl)amino)-5-fluoropyrimidin-4-yl)amino)methyl)piperidin-1-yl)acetamide]	590
NC(=O)CN1CCC(CNc2ncnc(N(Cc3ccc(C(F)(F)F)cc3)C3CC3)c2F)CC1 [Example A7-39, 2-(4-(((6-(cyclopropyl(4-(trifluoromethyl)benzyl)amino)-5-fluoropyrimidin-4-yl)amino)methyl)piperidin-1-yl)acetamide]	37
Cc1cc(CN(c2ncnc(NCC3CCN(CC(N)=O)CC3)c2F)C2CC2)c(C)cc1Cl [Example A7-46, 2-(4-(((6-((4-chloro-2,5-dimethylbenzyl)(cyclopropyl)amino)-5-fluoropyrimidin-4-yl)amino)methyl)piperidin-1-yl)acetamide]	> 1000
Cc1ccc(C)c(CN(c2ncnc(NCC3CCN(CC(N)=O)CC3)c2F)C2CC2)c1 [Example A7-47, 2-(4-(((6-(cyclopropyl(2,5-dimethylbenzyl)amino)-5-fluoropyrimidin-4-yl)amino)methyl)piperidin-1-yl)acetamide]	> 1000
CC1CC(CNc2ncnc(N(Cc3ccc(C(F)(F)F)cc3)C3CC3)c2F)CCN1CC(N)=O (centres unmarked) [Example A7-48]	17
Cc1cc(CN(c2ncnc(NCC3CCN(CC(N)=O)CC3)c2F)C2CC2)cc(C)c1Cl [Example A7-53, 2-(4-(((6-((4-chloro-3,5-dimethylbenzyl)(cyclopropyl)amino)-5-fluoropyrimidin-4-yl)amino)methyl)piperidin-1-yl)acetamide]	> 1000
NC(=O)C(CO)N1CCC(CNc2ncnc(N(Cc3ccc(C(F)(F)F)cc3)C3CC3)c2F)CC1 (centres unmarked) [Example A7-64, 2-(4-(((6-(cyclopropyl(4-(trifluoromethyl)benzyl)amino)-5-fluoropyrimidin-4-yl)amino)methyl)piperidin-1-yl)-3-hydroxypropanamide]	73
NC(=O)CN1CCC(CNc2ncnc(N(Cc3ccc(C(F)(F)F)cc3)C3CC3)c2F)(c2nc[nH]n2)CC1 [Example A7-80, 2-(4-(((6-(Cyclopropyl(4-(trifluoromethyl)benzyl)amino)-5-fluoropyrimidin-4-yl)amino)methyl)-4-(1H-1,2,4-triazol-3-yl)piperidin-1-yl)acetamide]	53
Cn1cnnc1C1(CNc2ncnc(N(Cc3ccc(C(F)(F)F)cc3)C3CC3)c2F)CCN(CC(N)=O)CC1 [Example A7-83, 2-(4-(((6-(Cyclopropyl(4-(trifluoromethyl)benzyl)amino)-5-fluoropyrimidin-4-yl)amino)methyl)-4-(4-methyl-4H-1,2,4-triazol-3-yl)piperidin-1-yl)acetamide]	> 1000
NC(=O)CN1CCC(CNc2ncnc(N(Cc3ccc(C(F)(F)F)cc3)C3CC3)c2F)(c2ncc[nH]2)CC1 [Example A7-84, 2-(4-(((6-(Cyclopropyl(4-(trifluoromethyl)benzyl)amino)-5-fluoropyrimidin-4-yl)amino)methyl)-4-(1H-imidazol-2-yl)piperidin-1-yl)acetamide]	301
NC(=O)CN1CCC(C(CO)Nc2ncnc(N(Cc3ccc(C(F)(F)F)cc3)C3CC3)c2F)CC1 (centres unmarked) [Example A7-87, 2-(4-(1-((6-(cyclopropyl(4-(trifluoromethyl)benzyl)amino)-5-fluoropyrimidin-4-yl)amino)-2-hydroxyethyl)piperidin-1-yl)acetamide]	181
NC(=O)CN1CCC(N)(CNc2ncnc(N(Cc3ccc(C(F)(F)F)cc3)C3CC3)c2F)CC1 [Example E6-1, 2-(4-Amino-4-(((6-(cyclopropyl(4-(trifluoromethyl)benzyl)amino)-5-fluoropyrimidin-4-yl)amino)methyl)piperidin-1-yl)acetamide]	150

These compounds were tested on IL-17A secretion in activated PBMCs (assay: IL-17A secretion in activated PBMCs). Details: Homo sapiens, PBMC, 48 h, human PBMCs stimulated with CD3/CD28 Dynabeads for 48 h; absolute IC50.
Assay type: cell-based, human
Protocol: Heparin-treated whole blood from healthy human volunteers was supplied from Hospital de Sant Pau (Barcelona) under the approval of the local ethical review board for human studies (Hospital de Sant Pau, Barcelona, Spain). Human peripheral blood mononuclear cells (PBMCs) were isolated from healthy human volunteers by density gradient centrifugation using the Ficoll-Paque (GE Healthcare). […] Cells were seeded in 384-well plate (DiscoverX), at 40,000 cells per well and cultured 2 h at 37° C. and 5% CO2.
Dose-response curves with compounds were prepared using a 5-fold serial dilution (10 concentrations) in 100% DMSO and further diluted 100-fold in culture medium. Compound solutions (5 μL) were added to the plate containing cells (final DMSO concentration of 0.1%) and incubated for 30 min. Then, cells were stimulated with CD3/CD28 Dynabeads (ThermoFisher, at a bead-to-cell ratio of 1:1) for 48 h at 37° C. and 5% CO2.
IL-17A levels in supernatant were determined by immunoassay using hIL17A QBeads (Intellicyt) and by fluorescence analysis in iQue flow cytometer following the manufacturer's instructions. Inhibition of IL-17A secretion was calculated using the following formula: inhibition=100*[1−[(x−mean basal condition)/(mean top condition−mean basal condition)]]. Activated DMSO-treated cells were used as top condition and activated GNE09461 (10 μM)-treated cells as basal condition.

SMILES	IC50 [nM]
NC(=O)CN1CC[C@@H](CNc2ncnc(N(Cc3ccc(C(F)(F)F)cn3)C3CC3)c2F)[C@H](O)C1 (racemic) [Example A7-14, rac-2-((3R,4R)-4-(((6-(cyclopropyl((5-(trifluoromethyl)pyridin-2-yl)methyl)amino)-5-fluoropyrimidin-4-yl)amino)methyl)-3-hydroxypiperidin-1-yl)acetamide]	28
CCN(Cc1ccc(C(F)(F)F)cc1)c1ncnc(NC[C@H]2CCN(CC(N)=O)C[C@@H]2O)c1F (racemic) [Example A7-21, rac-2-((3R,4R)-4-(((6-(ethyl(4-(trifluoromethyl)benzyl)amino)-5-fluoropyrimidin-4-yl)amino)methyl)-3-hydroxypiperidin-1-yl)acetamide]	80
NC(=O)CN1CC[C@@H](CNc2ncnc(N(Cc3ccc(C(F)(F)F)nc3)C3CC3)c2F)[C@H](O)C1 (racemic) [Example A7-28, rac-2-((3R,4R)-4-(((6-(cyclopropyl((6-(trifluoromethyl)pyridin-3-yl)methyl)amino)-5-fluoropyrimidin-4-yl)amino)methyl)-3-hydroxypiperidin-1-yl)acetamide]	120
[2H]C([2H])([2H])N(Cc1ccc(C(F)(F)F)cc1)c1ncnc(NC[C@@H]2CCN(CC(N)=O)C[C@H]2O)c1F (racemic) [Example A7-60, rac-2-((3R,4R)-4-(((5-fluoro-6-((methyl-d3)(4-(trifluoromethyl)benzyl)amino)pyrimidin-4-yl)amino)methyl)-3-hydroxypiperidin-1-yl)acetamide]	87
NC(=O)CN1CC[C@@H](CNc2ncnc(N(Cc3ccc(-n4cccn4)cc3)C3CC3)c2F)[C@H](O)C1 (racemic) [Example A7-86, rac-2-((3R,4R)-4-(((6-((4-(1H-pyrazol-1-yl)benzyl)(cyclopropyl)amino)-5-fluoropyrimidin-4-yl)amino)methyl)-3-hydroxypiperidin-1-yl)acetamide]	55
CCN(Cc1ccc(C(F)(F)F)cc1)c1ncnc(NC[C@@H]2CCN(C(C)(C)C(N)=O)C[C@H]2O)c1F (relative stereo) [Example A7-57, rel-2-((3R,4R)-4-(((6-(ethyl(4-(trifluoromethyl)benzyl)amino)-5-fluoropyrimidin-4-yl)amino)methyl)-3-hydroxypiperidin-1-yl)-2-methylpropanamide]	39
NC(=O)CN1CC[C@@H](CNc2ncnc(N(Cc3ccc(C(F)(F)F)cc3)C3CC3)c2F)[C@H](O)C1 (stereo in doubt) [Example A7-01, rac-2-((3R,4R)-4-(((6-(Cyclopropyl(4-(trifluoromethyl)benzyl)amino)-5-fluoropyrimidin-4-yl)amino)methyl)-3-hydroxypiperidin-1-yl)acetamide]	8.7

Same assay, conditions: human PBMCs stimulated with CD3/CD28 Dynabeads for 48 h; absolute IC50

SMILES	IC50 [nM]
Cn1cc(-c2ccc(CN(c3ncnc(NC[C@]4(O)CCN(CC(N)=O)C[C@H]4O)c3F)C3CC3)c(F)c2)cn1 (single isomer, unassigned) [Example D5-05-1]	23
